Calls of active or inactive are those of the source. The calls are words filed in the database; no cut-off is given here.
Columns and labels:
Caov-3 cell line [1] = assay: Induction of apoptosis in human Caov3 cells assessed as formation of apoptotic nuclei at 2.0 uM incubated for 48 hrs by Hoechst 33342 staining based fluorescent microscopic method; format: functional, cell-based
Caov-3 cell line [2] = assay: Growth inhibition of human Caov3 cells incubated for 48 hrs by MTT assay; format: functional, cell-based
Homo sapiens = species: Homo sapiens; assay: Growth inhibition of human ES2 cells incubated for 48 hrs by MTT assay; format: functional
Caov-4 [3] = assay: Growth inhibition of human Caov4 cells incubated for 48 hrs by MTT assay; format: functional, cell-based
Caov-3 cell line [4] = assay: Growth inhibition of human Caov3 cells at 0.5 uM incubated for 48 hrs by MTT assay; format: functional, cell-based
Caov-4 [5] = assay: Growth inhibition of human Caov4 cells at 0.5 uM incubated for 48 hrs by MTT assay; format: functional, cell-based
Caov-3 cell line [6] = assay: Growth inhibition of human Caov3 cells at 2 uM incubated for 48 hrs by MTT assay relative to control; format: functional; settings: Caov-3, 48 h, read-out: GI
Caov-3 cell line [7] = assay: Growth inhibition of human Caov3 cells at 0.25 uM incubated for 48 hrs by MTT assay; format: functional, cell-based
Caov-3 cell line [8] = assay: Induction of apoptosis in human Caov3 cells assessed as formation of apoptotic nuclei at 0.25 uM incubated for 48 hrs by Hoechst 33342 staining based fluorescent microscopic method relative to control; format: functional
Caov-3 cell line [9] = assay: Induction of apoptosis in human Caov3 cells assessed as formation of apoptotic nuclei at 1.5 uM incubated for 48 hrs by Hoechst 33342 staining based fluorescent microscopic method relative to control; format: functional
Caov-3 cell line [10] = assay: Induction of Cell cycle arrest in human Caov3 cells assessed as accumulation at S phase at 1 uM incubated for 48 hrs by propidium iodide staining based flow cytometric analysis (reference value: 18.89%); format: functional
Caov-3 cell line [11] = assay: Induction of Cell cycle arrest in human Caov3 cells assessed as accumulation at G0/G1 phase at 1.5 uM incubated for 48 hrs by propidium iodide staining based flow cytometric analysis (reference value: 57.77%); format: functional
Caov-3 cell line [12] = assay: Induction of Cell cycle arrest in human Caov3 cells assessed as accumulation at S phase at 1.5 uM incubated for 48 hrs by propidium iodide staining based flow cytometric analysis (reference value: 18.89%); format: functional
Caov-3 cell line [13] = assay: Antiinvasive activity in human Caov3 cells at 0.25 uM incubated for 48 hrs using hematoxylin by microscopy-based transwell assay; format: functional, cell-based
Caov-3 cell line [14] = assay: Inhibition of metastasis in human Caov3 cells assessed as decrease in MMP9 expression level at 0.5 uM incubated for 48 hrs by Western blot analysis; format: functional, cell-based
Caov-3 cell line [15] = assay: Inhibition of metastasis in human Caov3 cells assessed as decrease in MMP9 expression level at 0.25 uM incubated for 48 hrs by Western blot analysis; format: functional, cell-based
Caov-3 cell line [16] = assay: Inhibition of metastasis in human Caov3 cells assessed as decrease in FAK activation level at 0.5 uM incubated for 48 hrs by Western blot analysis; format: functional, cell-based
Caov-3 cell line [17] = assay: Inhibition of metastasis in human Caov3 cells assessed as decrease in FAK phosphorylation level at 0.5 to 5.0 uM incubated for 48 hrs by Western blot analysis; format: functional, cell-based
Caov-3 cell line [18] = assay: Antitumor activity against human Caov3 cells xenografted in BALB/c nude mouse assessed as tumor size at 5 mg/kg, ip incubated for 1 hr post tumor implantation and measured after 20 days (reference value: 1956 +/- 367 mm3); format: functional
Caov-3 cell line [19] = assay: Antitumor activity against human Caov3 cells xenografted in BALB/c nude mouse assessed as tumor size at 10 mg/kg, ip incubated for 1 hr post tumor implantation and measured after 20 days (reference value: 1956 +/- 367 mm3); format: functional
Caov-3 cell line [20] = assay: Antimetastasis activity against human Caov3 cells xenografted in BALB/c nude mouse assessed as reduction of metastasis in intestine at 10 mg/kg, ip incubated for 1 hr post tumor implantation and measured after 20 days by H and E staining-based assay; format: functional, organism-based
Caov-3 cell line [21] = assay: Antimetastasis activity against human Caov3 cells xenografted in BALB/c nude mouse assessed as reduction in vWF expression in lungs lesions at 10 mg/kg, ip incubated for 1 hr post tumor implantation and measured after 20 days by DAB and hematoxylin staining based immunohistochemical analysis relative to control; format: functional; set-up: scale not given: the % may be the effect or the level left
Caov-3 cell line [22] = assay: Antimetastasis activity against human Caov3 cells xenografted in BALB/c nude mouse assessed as reduction in vWF expression in lungs lesions at 5 mg/kg, ip incubated for 1 hr post tumor implantation and measured after 20 days by DAB and hematoxylin staining based immunohistochemical analysis; format: functional, organism-based
Caov-3 cell line [23] = assay: Antimetastasis activity against human Caov3 cells xenografted in BALB/c nude mouse assessed as reduction in vWF expression in intestinal lesions at 5 mg/kg, ip incubated for 1 hr post tumor implantation and measured after 20 days by DAB and hematoxylin staining based immunohistochemical analysis; format: functional, organism-based
Caov-3 cell line [24] = assay: Antimetastasis activity against human Caov3 cells xenografted in BALB/c nude mouse assessed as reduction in infiltration of macrophages in liver lesions at 10 mg/kg, ip incubated for 1 hr post tumor implantation and measured after 20 days by DAB and hematoxylin staining based immunohistochemical analysis relative to control; format: functional; set-up: scale not given: the % may be the effect or the level left
Caov-3 cell line [25] = assay: Antimetastasis activity against human Caov3 cells xenografted in BALB/c nude mouse assessed as reduction in infiltration of macrophages in lungs lesions at 10 mg/kg, ip incubated for 1 hr post tumor implantation and measured after 20 days by DAB and hematoxylin staining based immunohistochemical analysis relative to control; format: functional; set-up: scale not given: the % may be the effect or the level left
Caov-3 cell line [26] = assay: Antimetastasis activity against human Caov3 cells xenografted in BALB/c nude mouse assessed as reduction in infiltration of macrophages in liver lesions at 5 mg/kg, ip incubated for 1 hr post tumor implantation and measured after 20 days by DAB and hematoxylin staining based immunohistochemical analysis; format: functional, organism-based
Caov-3 cell line [27] = assay: Antimetastasis activity against human Caov3 cells xenografted in BALB/c nude mouse assessed as reduction in infiltration of macrophages in lungs lesions at 5 mg/kg, ip incubated for 1 hr post tumor implantation and measured after 20 days by DAB and hematoxylin staining based immunohistochemical analysis; format: functional, organism-based
Caov-3 cell line [28] = assay: Antimetastasis activity against human Caov3 cells xenografted in BALB/c nude mouse assessed as reduction in infiltration of macrophages in peritoneal lesions at 5 mg/kg, ip incubated for 1 hr post tumor implantation and measured after 20 days by DAB and hematoxylin staining based immunohistochemical analysis; format: functional, organism-based

Fc1ccccc1-n1cc(COCc2ccccc2S)nn1
Activity (Caov-3 cell line [1]): Active
growth inhibition (GI) (Caov-3 cell line [2]): Dose-dependent effect
growth inhibition (GI) (Homo sapiens): Dose-dependent effect
growth inhibition (GI) (Caov-4 [3]): Dose-dependent effect
growth inhibition (GI) (Caov-3 cell line [4]): Active
growth inhibition (GI) (Caov-4 [5]): Active
inhibition of growth at 2 µM (Caov-3 cell line [6]): 27%
growth inhibition (GI) (Caov-3 cell line [7]): inactive
Activity (Caov-3 cell line [8]): 1.26%
Activity (Caov-3 cell line [9]): 45.89%
Activity (Caov-3 cell line [10]): 16.23%
Activity (Caov-3 cell line [11]): 64.57%
Activity (Caov-3 cell line [12]): 14.61%
Activity (Caov-3 cell line [13]): inactive
inhibition (Caov-3 cell line [14]): Active
inhibition (Caov-3 cell line [15]): inactive
inhibition (Caov-3 cell line [16]): Active
inhibition (Caov-3 cell line [17]): Active
Activity (Caov-3 cell line [18]): 1258 mm3
Activity (Caov-3 cell line [19]): 213.34 mm3
Activity (Caov-3 cell line [20]): Active
Activity (Caov-3 cell line [21]): 8%
Activity (Caov-3 cell line [22]): inactive
Activity (Caov-3 cell line [23]): inactive
Activity (Caov-3 cell line [24]): 8%
Activity (Caov-3 cell line [25]): 9%
Activity (Caov-3 cell line [26]): inactive
Activity (Caov-3 cell line [27]): inactive
Activity (Caov-3 cell line [28]): inactive

Reference: ChEMBL document CHEMBL4346695, “Thiophenol-formaldehyde triazole causes apoptosis induction in ovary cancer cells and prevents tumor growth formation in mice model” (2019)
